The text below walks through data of patent publication US8946438B2, “Benzamides, production thereof, and use thereof as medicaments” (Boehringer Ingelheim International GmbH, priority 2008, dated 2015).

This test addresses p38 MAP-kinase (Homo sapiens, UniProt Q16539). Kind of test: Enzymatic assay: inhibition of p38 MAP-kinase (phosphorylation of GST-tagged ATF2, chemoluminescence bead readout). In kind it is biochemical. The settings on record: inhibitor 1 μM; activated p38 MAP-kinase 1 nM; 4 h preincubation; ATP 100 μM; ATF2 10 nM; read-out: % inhibitory effect at 1 μM. The method in brief: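 Activated human p38 MAP-kinase (1 nM) preincubated 4 h at ambient temperature with compound at 1 μM in HEPES pH 7, MgCl2, DTT, Tween20. Then reacted 1 h with GST-ATF2 (10 nM) and ATP (100 μM). Phospho-ATF2 read by bead chemoluminescence at 520-620 nm, given as % inhibition at 1 μM versus kinase-free background.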

p38 MAP-kinase, sequence (Q16539 whole entry): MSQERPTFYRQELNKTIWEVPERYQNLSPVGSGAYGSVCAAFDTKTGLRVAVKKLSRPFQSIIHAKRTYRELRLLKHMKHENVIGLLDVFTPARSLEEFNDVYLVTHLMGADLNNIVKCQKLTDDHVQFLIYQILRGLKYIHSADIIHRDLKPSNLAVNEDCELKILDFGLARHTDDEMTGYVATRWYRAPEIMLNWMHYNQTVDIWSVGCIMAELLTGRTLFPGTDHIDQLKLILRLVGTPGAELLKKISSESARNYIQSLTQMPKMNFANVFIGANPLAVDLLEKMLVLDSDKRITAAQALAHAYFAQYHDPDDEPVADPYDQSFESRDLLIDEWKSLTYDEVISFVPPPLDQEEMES

For `COc1c(NC(=O)c2ccc(C)c(Oc3cc(CC4CCCNCC4)ncn3)c2)cc(C(C)(C)C)cc1NS(C)(=O)=O` (centres unmarked) [5(54), 3-(6-azepan-4-ylmethyl-pyrimidin-4-yloxy)-N-(5-tert-butyl-3-methanesulphonylamino-2-methoxy-phenyl)-4-methyl-benzamide], the inhibition at 1 µM amounted to 99.7%.
Consider `COc1c(NC(=O)c2ccc(C)c(Oc3ccnc(CC4CCNCC4)c3)c2)cc(C(F)(F)C(F)(F)F)cc1NS(C)(=O)=O` [5(55), N-(3-methanesulphonylamino-2-methoxy-5-pentafluoroethyl-phenyl)-4-methyl-3-(2-piperidin-4-ylmethyl-pyridin-4-yloxy)-benzamide], for which the inhibition at 1 µM is 99.6%.
Next, `COc1c(NC(=O)c2ccc(C)c(Oc3cc(C(=O)N4CCN(C)CC4)ncn3)c2)cc(C(C)(C)C)cc1NS(C)(=O)=O` [7(2), N-(5-tert-butyl-3-methanesulphonylamino-2-methoxy-phenyl)-4-methyl-3-[6-(4-methyl-piperazine-1-carbonyl)-pyrimidin-4-yloxy]-benzamide]: 96.3%.
As for `COc1c(NC(=O)c2cc(F)c(C)c(Oc3ccnc(CN4CCN(C)CC4)n3)c2)cc(C(C)(C)C)cc1NS(C)(=O)=O` [7(3), N-(5-tert-butyl-3-methanesulphonylamino-2-methoxy-phenyl)-3-fluoro-4-methyl-5-[2-(4-methyl-piperazin-1-ylmethyl)-pyrimidin-4-yloxy]-benzamide], the figure is 98.8%; as for `COc1c(NC(=O)c2cc(Cl)c(C)c(Oc3ccnc(CN4CCN(C)CC4)n3)c2)cc(C(C)(C)C)cc1NS(C)(=O)=O` [7(5), N-(5-tert-butyl-3-methanesulphonylamino-2-methoxy-phenyl)-3-chloro-4-methyl-5-[2-(4-methyl-piperazin-1-ylmethyl)-pyrimidin-4-yloxy]-benzamide], 98.5%; as for `CNCc1cc(Oc2cc(C(=O)Nc3cc(C(C)(C)C)cc(NS(C)(=O)=O)c3OC)ccc2C)ncn1` [8(1), N-(5-tert-butyl-3-methanesulphonylamino-2-methoxy-phenyl)-4-methyl-3-(6-methylaminomethyl-pyrimidin-4-yloxy)-benzamide], 55.9%.
On to `COc1c(NC(=O)c2ccc(C)c(Oc3cc(CN4CCN(C)CC4)ncn3)c2)cc(C(C)(C)C)cc1NS(C)(=O)=O` [8(2), N-(5-tert-butyl-3-methanesulphonylamino-2-methoxy-phenyl)-4-methyl-3-[6-(4-methyl-piperazin-1-ylmethyl)-pyrimidin-4-yloxy]-benzamide], for which the inhibition at 1 µM is 98.7%.
As for `COc1c(NC(=O)c2ccc(C)c(Oc3ccnc(CN4CCOCC4)n3)c2)cc(C(C)(C)C)cc1NS(C)(=O)=O` [8(3), N-(5-tert-butyl-3-methanesulphonylamino-2-methoxy-phenyl)-4-methyl-3-(2-morpholin-4-ylmethyl-pyrimidin-4-yloxy)-benzamide], the figure is 95.2%; as for `CNCc1nccc(Oc2cc(C(=O)Nc3cc(C(C)(C)C)cc(NS(C)(=O)=O)c3OC)ccc2C)n1` [8(4), N-(5-tert-butyl-3-methanesulphonylamino-2-methoxy-phenyl)-4-methyl-3-(2-methylaminomethyl-pyrimidin-4-yloxy)-benzamide], 66%; as for `COc1c(NC(=O)c2ccc(C)c(Oc3ccnc(CN4CCNC(=O)C4)n3)c2)cc(C(C)(C)C)cc1NS(C)(=O)=O` [8(5), N-(5-tert-butyl-3-methanesulphonylamino-2-methoxy-phenyl)-4-methyl-3-[2-(3-oxo-piperazin-1-ylmethyl)-pyrimidin-4-yloxy]-benzamide], 95.8%.
As for `COc1c(NC(=O)c2ccc(C)c(Oc3ccnc(CN4CCN(C)CC4)n3)c2)cc(C(C)(C)C)cc1NS(C)(=O)=O` [8(6), N-(5-tert-butyl-3-methanesulphonylamino-2-methoxy-phenyl)-4-methyl-3-[2-(4-methyl-piperazin-1-ylmethyl)-pyrimidin-4-yloxy]-benzamide], the figure is 98.7%; as for `COc1c(NC(=O)c2ccc(C)c(Oc3cc(CN4CCNC(=O)C4)ncn3)c2)cc(C(C)(C)C)cc1NS(C)(=O)=O` [8(7), N-(5-tert-butyl-3-methanesulphonylamino-2-methoxy-phenyl)-4-methyl-3-[6-(3-oxo-piperazin-1-ylmethyl)-pyrimidin-4-yloxy]-benzamide], 94.1%.
Next, `COc1c(NC(=O)c2ccc(C)c(Oc3ccnc(CN4CCOCC4)c3)c2)cc(C(C)(C)C)cc1NS(C)(=O)=O` [8(9), N-(5-tert-butyl-3-methanesulphonylamino-2-methoxy-phenyl)-4-methyl-3-(2-morpholin-4-ylmethyl-pyridin-4-yloxy)-benzamide]: 98.4%.
Take `COc1c(NC(=O)c2ccc(C)c(Oc3ccnc(CN4CCN(C)CC4)c3)c2)cc(C(C)(C)C)cc1NS(C)(=O)=O` [8(10), N-(5-tert-butyl-3-methanesulphonylamino-2-methoxy-phenyl)-4-methyl-3-[2-(4-methyl-piperazin-1-ylmethyl)-pyridin-4-yloxy]-benzamide]: the inhibition at 1 µM was determined as 98.9%.
As for `COc1c(NC(=O)c2ccc(C)c(Oc3ccnc(CN[C@H]4CCOC4)c3)c2)cc(C(C)(C)C)cc1NS(C)(=O)=O` [8(11), (S)-N-(5-tert-butyl-3-methanesulphonylamino-2-methoxy-phenyl)-4-methyl-3-{2-[(tetrahydro-furan-3-ylamino)-methyl]-pyridin-4-yloxy}-benzamide], the figure is 96.7%; as for `COc1c(NC(=O)c2ccc(C)c(Oc3ccnc(CN4CC[C@@H](O)C4)c3)c2)cc(C(C)(C)C)cc1NS(C)(=O)=O` [8(12), (R)-N-(5-tert-butyl-3-methanesulphonylamino-2-methoxy-phenyl)-3-[2-(3-hydroxy-pyrrolidin-1-ylmethyl)-pyridin-4-yloxy]-4-methyl-benzamide], 97%.
As for `COc1c(NC(=O)c2ccc(C)c(Oc3ccnc(CN4CC[C@H](O)C4)c3)c2)cc(C(C)(C)C)cc1NS(C)(=O)=O` [8(13), (S)-N-(5-tert-butyl-3-methanesulphonylamino-2-methoxy-phenyl)-3-[2-(3-hydroxy-pyrrolidin-1-ylmethyl)-pyridin-4-yloxy]-4-methyl-benzamide], the figure is 96.8%; as for `CNCc1cc(Oc2cc(C(=O)Nc3cc(C(C)(C)C)cc(NS(C)(=O)=O)c3OC)ccc2C)ccn1` [8(14), N-(5-tert-butyl-3-methanesulphonylamino-2-methoxy-phenyl)-4-methyl-3-(2-methylaminomethyl-pyridin-4-yloxy)-benzamide], 91.1%; as for `COc1c(NC(=O)c2ccc(C)c(Oc3ccnc(CN[C@@H]4CCOC4)c3)c2)cc(C(C)(C)C)cc1NS(C)(=O)=O` [8(15), (R)-N-(5-tert-butyl-3-methanesulphonylamino-2-methoxy-phenyl)-4-methyl-3-{2-[(tetrahydro-furan-3-ylamino)-methyl]-pyridin-4-yloxy}-benzamide], 95.9%.
For `COc1c(NC(=O)c2ccc(C)c(Oc3ccnc(CN4CCCN(C)CC4)n3)c2)cc(C(C)(C)C)cc1NS(C)(=O)=O` [8(16), N-(5-tert-butyl-3-methanesulphonylamino-2-methoxy-phenyl)-4-methyl-3-[2-(4-methyl-homopiperazin-1-ylmethyl)-pyrimidin-4-yloxy]-benzamide], the inhibition at 1 µM is 98.7%.
